Read-outs that look alike come from different tables or passages of the source.
Key:
[1] = tested on: draining lymph node (DLN) cells; assay: Flow cytometry of activation and adhesion markers on DLN cells of SJL mice with EAE; assay type: in vivo; details: DLN cells at peak of EAE
Procedure: Immunofluorescent staining for flow cytometry. Draining lymph node (DLN) cells were removed during the peak of clinical symptoms and analyzed for the expression of cell surface proteins by fluorescent staining ex vivo. The following fluorochrome conjugated antibodies obtained from Pharmingen Inc. (San Diego, Calif.) were used for the direct staining of DLN cells: anti-CD4, anti-CD25, anti-CD69, anti-CD95L, anti-CD44, anti-CD62L, anti-CD49d. Two-color immunofluorescent analysis was performed on a FACScan instrument (Becton Dickinson, Mountain View, Calif.) using Cellquest software. For each experiment the cells were stained with isotype control antibodies to establish background staining, and to set the quadrants prior to calculating the percent positive staining cells. […] Alterations in the expression of adhesion or activation markers on T cells are often indicative of functional changes in the cell. Monoclonal antibodies specific for a number of these markers were used to assess whether estrogen therapy altered their expression. Draining lymph node (DLN) cells were recovered from mice during the peak of clinical EAE, incubated with the indicated fluorochrome conjugated monoclonal antibodies, and surface expression measured by fluorescent activated cell analyzer.

[2] = cited from earlier work
[3] = tested on: B10.PL mice; assay: EAE induced with MBP Ac1-11 in B10.PL mice; assay type: in vivo
[4] = tested on: male SJL mice; assay: EAE induced with PLP 139-151 in male SJL mice; assay type: in vivo
[5] = tested on: DLN cells; assay: PLP 139-151 induced cytokine production by DLN cells (ELISA); assay type: in vivo, mice; details: 48-72 hours after PLP 139-151 stimulation
Procedure: Cytokine detection by ELISA. DLN cells were cultured at 4×10^6/ml and stimulated with the appropriate antigen in 24 well culture plates. Cell culture supernatants were recovered between 48-72 hr and frozen at −70° C. until needed for the cytokine assay. Measurement of cytokines was performed by ELISA using cytokine specific capture and detection antibodies (Pharmingen). Standard curves for each assay were generated using recombinant mouse cytokines (Pharmingen), and the concentration of cytokines in the cell supernatants was determined by interpolation from the appropriate standard curve. IFN-γ, TNF-α and IL-12 were chosen as representative Th1 cytokines, while IL-4 and IL-10 were measured as representative Th2 cytokines.
To determine if low dose estrogen therapy altered cytokine secretion patterns, DLN cells were prepared from individual mice at the peak of clinical EAE and cytokine levels were measured 48-72 hours after in vitro stimulation with PLP 139-151. IFN-γ, IL-12, and TNF-α were used as representative Th1 cytokines while IL-4, and IL-10 were used as representative Th2 cytokines. […] Despite the lack of statistical significance, the trend towards higher Th1 and lower Th2 cytokines points towards a subtle shift in the Th1/Th2 balance. The shift can be seen more clearly when the cytokine response of each individual mouse is plotted as a ratio of IFN-γ to IL-10 (FIG. 5C). There was a marked decrease in the frequency of high Th1 responder mice in the E2 and E3 treated groups when compared to placebo animals that approached significance (p=0.09 for the 5.0 mg E3 treated mice). Additionally, no informative trends were detected in IL-4 secretion (FIG. 5D), and TNF-α secretion was very often below the limits of detection for the assay (<31.25 pg/ml). Modest changes in cytokine responses induced by low dose estrogen therapy were also observed in the B10.PL model and were consistent with the data described for the SJL model.

[6] = tested on: female SJL mice; assay: EAE induced with PLP 139-151 in female SJL mice (clinical scores, spinal cord histopathology); assay type: in vivo; details: for Demyelinated foci/section / Inflammatory foci/section: spinal cord at peak of disease

For `C[C@]12CC[C@@H]3c4ccc(O)cc4CC[C@H]3[C@@H]1C[C@@H](O)[C@@H]2O` [Estriol, estriol], the “CD4, % of Total” value ([1]; 2.5 mg pellet) was 45%, the “CD25, % of CD4+ T cells” value ([1]; 2.5 mg pellet) was 5.5% and the “CD44, % of CD4+ T cells” value ([1]; 2.5 mg pellet) was 36%. For the same compound, the “CD62L, % of CD4+ T cells” value ([1]; 2.5 mg pellet) was 12%, the “CD69, % of CD4+ T cells” value ([1]; 2.5 mg pellet) was 7.5% and the “CD49d, % of CD4+ T cells” value ([1]; 2.5 mg pellet) was 36%. The “FASL, % of CD4+ T cells” value ([1]; 2.5 mg pellet) was 3.1%, the “CD4, % of Total” value ([1]; 5.0 mg pellet) was 47% and the “CD25, % of CD4+ T cells” value ([1]; 5.0 mg pellet) was 6.4%. The “CD44, % of CD4+ T cells” value ([1]; 5.0 mg pellet) was 38%, the “CD62L, % of CD4+ T cells” value ([1]; 5.0 mg pellet) was 8.8% and the “CD69, % of CD4+ T cells” value ([1]; 5.0 mg pellet) was 8.3%. For the same compound, the “CD49d, % of CD4+ T cells” value ([1]; 5.0 mg pellet) was 37%, the “FASL, % of CD4+ T cells” value ([1]; 5.0 mg pellet) was 2.7% and the “serum concentration from 60-day release pellet” value (shortened to “serum concentration”) ([2]; 0.025 mg pellet) was 10 to 20 pg/mL. The “serum concentration” value ([2]; 0.1 mg pellet) was 40 to 50 pg/mL, the “serum concentration” value ([2]; 0.36 mg pellet) was 150 to 200 pg/mL and the “serum concentration” value ([2]; 1.5 mg pellet) was 800-1,000 pg/ml. For the same compound, the “serum concentration” value ([2]; 2.5 mg pellet) was 2,000-3,000 pg/ml, the “serum concentration” value ([2]; 5 mg pellet) was 5,000-6,000 pg/ml and the “serum concentration” value ([2]; 15 mg pellet) was 10,000-15,000 pg/ml. For the same compound, the CDI ([3]; 1.5 mg/pellet (low)) was 1.9 ± 1.7, the Incidence ([3]; 1.5 mg/pellet (low)) was 5/8 and the “Incidence (%)” value ([3]; 1.5 mg/pellet (low)) was 38%. For the same compound, the Onset ([3]; 1.5 mg/pellet (low)) was 30.3 ± 0.9 days, the “Peak (disease score)” value ([3]; 1.5 mg/pellet (low)) was 1.38 ± 0.8 and the CDI ([3]; 5 mg/pellet (pregnancy)) was 1.0 ± 0.5. The Incidence ([3]; 5 mg/pellet (pregnancy)) was 3/8, the “Incidence (%)” value ([3]; 5 mg/pellet (pregnancy)) was 38% and the Onset ([3]; 5 mg/pellet (pregnancy)) was 31.3 ± 0.7 days. The “Peak (disease score)” value ([3]; 5 mg/pellet (pregnancy)) was 0.71 ± 0.4, the “inhibitory effect on EAE compared with 17β-estradiol” value ([3]; B10.PL females) was “equivalent inhibitory effect on EAE” and the CDI ([4]; 2.5 mg/pellet) was 3.2 ± 2.5. The Incidence ([4]; 2.5 mg/pellet) was 2/3, the “Incidence (%)” value ([4]; 2.5 mg/pellet) was 67% and the Onset ([4]; 2.5 mg/pellet) was 16.5 ± 0.7 days. The “Peak (disease score)” value ([4]; 2.5 mg/pellet) was 0.67 ± 0.6, the CDI ([4]; 5.0 mg/pellet) was 2.6 ± 5.3 and the Incidence ([4]; 5.0 mg/pellet) was 1/4. For the same compound, the “Incidence (%)” value ([4]; 5.0 mg/pellet) was 25%, the Onset ([4]; 5.0 mg/pellet) was 16.0 ± 0 days and the “Peak (disease score)” value ([4]; 5.0 mg/pellet) was 0.50 ± 1.0. For the same compound, the “IL-10 secretion by DLN cells” value [5] was “modest increase”, the “IL-12 secretion by DLN cells” value [5] was “small decrease” and the “secretion of IFN-γ by DLN cells” value ([5]; p>0.10) was “consistently lower”. The “CDI (cumulative disease index)” value ([6]; 1.5 mg/pellet (low)) was 9.3 ± 2.6, the Incidence ([6]; 1.5 mg/pellet (low)) was 6/10 and the “Incidence (%)” value ([6]; 1.5 mg/pellet (low)) was “(60%)”. For the same compound, the Onset ([6]; 1.5 mg/pellet (low)) was 16.4 ± 0.7 days, the “Peak (disease score)” value ([6]; 1.5 mg/pellet (low)) was 2.0 ± 0.0 and the Relapse ([6]; 1.5 mg/pellet (low)) was 0/3. The “Relapse (%)” value ([6]; 1.5 mg/pellet (low)) was “(0%)”, the Demyelinated foci/section ([6]; 2.5 mg pellet) was 0.8 ± 0.2 foci/section and the Inflammatory foci/section ([6]; 2.5 mg pellet) was 1.2 ± 0.6 foci/section. For the same compound, the Demyelinated foci/section ([6]; 5.0 mg pellet) was 0.3 ± 0.2 foci/section, the Inflammatory foci/section ([6]; 5.0 mg pellet) was 0.9 ± 0.5 foci/section and the “CDI (cumulative disease index)” value ([6]; 5.0 mg/pellet (pregnancy)) was 6.5 ± 9. The Incidence ([6]; 5.0 mg/pellet (pregnancy)) was 2/5, the “Incidence (%)” value ([6]; 5.0 mg/pellet (pregnancy)) was “(40%)” and the Onset ([6]; 5.0 mg/pellet (pregnancy)) was 33.5 ± 5.0 days. For the same compound, the “Peak (disease score)” value ([6]; 5.0 mg/pellet (pregnancy)) was 1.4 ± 2.2, the Relapse ([6]; 5.0 mg/pellet (pregnancy)) was 0/2 and the “Relapse (%)” value ([6]; 5.0 mg/pellet (pregnancy)) was “(0%)”. The “CDI (cumulative disease index)” value ([6]; 15.0 mg/pellet (high)) was 4.4 ± 3.5, the Incidence ([6]; 15.0 mg/pellet (high)) was 5/10 and the “Incidence (%)” value ([6]; 15.0 mg/pellet (high)) was “(50%)”. The Onset ([6]; 15.0 mg/pellet (high)) was 23.8 ± 9 days, the “Peak (disease score)” value ([6]; 15.0 mg/pellet (high)) was 1.4 ± 1.1 and the Relapse ([6]; 15.0 mg/pellet (high)) was 0/1. For the same compound, the “Relapse (%)” value ([6]; 15.0 mg/pellet (high)) was “(0%)” and the “comparison of E2 and E3 in incidence or severity of EAE” value ([6]; Fisher exact test, same animal model) was “equally protective”.

— patent US7579006B2, “Method of treating immune pathologies with low dose estrogen” (Oregon Health and Science University, priority 2000, dated 2009)
